Data set [1] is described as follows: Solid state (polymorphic) stability of crystalline forms on storage, humidity, heat, pressure or grinding. The data set is classed as physicochemical. Conditions: for stability (conversion to any other solid state form): 'stable' as defined in b57: less than 20% conversion at 60% RH/RT or 75% RH/40° C. for at least 1 month, or at 80-100% RH 7 days, 100° C. 30 minutes, 3 Ton 1 minute, strong grinding. Here is the method:
As used herein the term “stable” in relation to crystalline Branaplam and salts thereof refers to less than 20%, less than 10%, less than 5%, less than 2%, less than 1%, or less than 0.5% conversion of crystalline Branaplam and salts thereof to any other solid state form of Branaplam when kept in storage for long term stability e.g. 60% RH/RT or 75% RH/40° C. for at least 1 month. Alternatively, crystalline Branaplam and salts thereof are stable when exposed to high humidity e.g. 80-100% RH for 7 days, high temperature e.g. 100° C. for 30 minutes, high mass pressure e.g. 3 Ton for 1 minute or upon strong grinding.

The nature of data set [2]: Hygroscopicity: water absorption at 80% RH for 24 hours at RT, e.g. by TGA. Conditions: 'non-hygroscopic' as defined in b56: less than 0.2% (w/w) absorption of water at 80% RH for 24 hours at RT. In kind it is physicochemical. Here is the method:
As used herein the term non-hygroscopic in relation to crystalline Branaplam and salts thereof refers to less than 0.2% (w/w) absorption of water by the crystalline Branaplam, when exposed to 80% relative humidity (“RH”) for 24 hours at room temperature (“RT”), as determined, for example, by TGA.

Where a name gives a salt, the structure may show the parent alone.

Turning to `CC1(C)CC(Oc2ccc(-c3ccc(-c4cn[nH]c4)cc3O)nn2)CC(C)(C)N1` [Branaplam Form B1, Branaplam], the “stability (conversion to any other solid state form)” value in data set [1] was “stable”.

As to `CC1(C)CC(Oc2ccc(-c3ccc(-c4cn[nH]c4)cc3O)nn2)CC(C)(C)N1` [Branaplam hydrochloride Form C1, Branaplam hydrochloride], the “stability (conversion to any other solid state form)” value in data set [1] (hydrochloride) is “surprisingly stable”. The hygroscopicity entry in data set [2] was “non-hygroscopic”.

In the case of `CC1(C)CC(Oc2ccc(-c3ccc(-c4cn[nH]c4)cc3O)nn2)CC(C)(C)N1` [Branaplam hydrochloride Form C3, Branaplam hydrochloride], the “stability upon heating and humidity” value in data set [1] (heating and humidity, b57 gives e.g. 100° C. for 30 minutes, 80-100% RH for 7 days) was “stable upon heating and humidity”.

The values are drawn from US20210179586A1, “SOLID STATE FORMS OF BRANAPLAM AND THEIR PREPARATION” (TEVA PHARMACEUTICALS INTERNATIONAL GMBH, priority 2018, published 2021).
